Reference: patent US12534469B2 (CHILDREN'S HOSPITAL MEDICAL CENTER, priority 2020, dated 2026)
Residue numbers refer to the chain shown, from its start.

How the values were obtained:
FLT3 N841I = target: T1, FLT3 N841I (Homo sapiens, UniProt P36888, N841I); assay: DiscoverX KINOMEscan competition binding assay, FLT3 N841I
T1 construct: purchased DiscoverX (KINOMEscan); host or cells: E. coli (T7 phage) or HEK-293
T1 sequence (P36888 27-993 N841I): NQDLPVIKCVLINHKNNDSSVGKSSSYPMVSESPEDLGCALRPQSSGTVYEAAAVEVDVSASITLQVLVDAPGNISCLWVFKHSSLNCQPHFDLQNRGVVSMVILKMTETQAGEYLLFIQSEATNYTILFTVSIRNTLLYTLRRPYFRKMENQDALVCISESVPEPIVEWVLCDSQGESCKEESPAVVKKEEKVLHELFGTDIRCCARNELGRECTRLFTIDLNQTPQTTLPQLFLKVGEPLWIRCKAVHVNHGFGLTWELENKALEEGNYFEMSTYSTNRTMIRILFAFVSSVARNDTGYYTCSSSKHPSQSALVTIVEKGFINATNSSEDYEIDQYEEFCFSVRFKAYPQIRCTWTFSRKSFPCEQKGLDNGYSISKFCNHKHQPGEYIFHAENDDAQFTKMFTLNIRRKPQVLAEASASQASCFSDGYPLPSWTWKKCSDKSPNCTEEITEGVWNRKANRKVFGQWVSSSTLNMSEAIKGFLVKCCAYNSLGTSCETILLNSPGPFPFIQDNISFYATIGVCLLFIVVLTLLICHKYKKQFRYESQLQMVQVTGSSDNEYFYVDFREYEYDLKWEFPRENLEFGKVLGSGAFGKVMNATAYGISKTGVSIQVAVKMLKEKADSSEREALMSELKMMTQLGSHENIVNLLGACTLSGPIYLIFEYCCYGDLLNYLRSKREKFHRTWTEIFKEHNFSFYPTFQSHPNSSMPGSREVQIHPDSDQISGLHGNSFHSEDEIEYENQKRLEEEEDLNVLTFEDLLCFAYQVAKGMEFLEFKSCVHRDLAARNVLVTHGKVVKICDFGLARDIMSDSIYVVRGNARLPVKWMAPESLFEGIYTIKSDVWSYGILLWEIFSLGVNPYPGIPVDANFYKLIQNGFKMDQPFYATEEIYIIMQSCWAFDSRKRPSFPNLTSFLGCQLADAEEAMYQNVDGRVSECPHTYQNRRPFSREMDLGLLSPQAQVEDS
Description: (§1) Kinase binding data were obtained for various exemplary compounds prepared according to Examples 1-25 using the DiscoverX KINOMEscan® active site-directed competition binding site-directed assay protocol described below. […] As a result, the data report thermodynamic interaction affinities (Kd values), rather than IC50 values that are dependent on ATP concentrations. The assay uses a DNA-tagged version of the protein kinase, and an immobilized ligand bound to a solid support. Compounds that directly or indirectly prevent kinase binding to the immobilized ligand reduce the amount of kinase captured on the solid support, which is detected using an ultra-sensitive qPCR method. Affinity constants reported from the assay have been reported to be independent of the immobilized ligand used that is coupled to the solid support (See supplemental information in Fabian, M. A. et. al., (2005) Nat. Biotechnol. 23, 329-336; Wodicka, L. M. et. al., (2010) Chem. Biol. 17, 1241-1249.)
(§2) Kinase-tagged T7 phage strains were prepared in an E. coli host derived from the BL21 strain. E. coli were grown to log-phase and infected with T7 phage and incubated with shaking at 32° C. until lysis. The lysates were centrifuged and filtered to remove cell debris. The remaining kinases were produced in HEK-293 cells and subsequently tagged with DNA for qPCR detection. […] The liganded beads were blocked with excess biotin and washed with blocking buffer (SeaBlock (Pierce), 1% BSA, 0.05% Tween 20, 1 mM DTT) to remove unbound ligand and to reduce non-specific binding. […] Test compounds were prepared as 111× stocks in 100% DMSO. Kds were determined using an 11-point 3-fold compound dilution series with three DMSO control points. […] The compounds were then diluted directly into the assays such that the final concentration of DMSO was 0.9%. All reactions were performed in polypropylene 384-well plates. Each was a final volume of 0.02 mL. […] The kinase concentration in the eluates was measured by qPCR.
(§3) Binding constants (Kds) were calculated with a standard dose-response curve using the Hill equation. […]

FLT3 R834Q = target: T2, FLT3 R834Q (Homo sapiens, UniProt P36888, R834Q); assay: DiscoverX KINOMEscan competition binding assay, FLT3 R834Q
T2 construct: purchased DiscoverX (KINOMEscan); host or cells: E. coli (T7 phage) or HEK-293
T2 sequence (P36888 27-993 R834Q): T1 sequence (P36888 27-993 N841I) with R808Q, I815N
Description: as §1, §2, §3

Row | Kd (FLT3 N841I) | Kd (FLT3 R834Q) | Structure (SMILES)
1 | 0.91 nM | 1.6 nM | COc1cc2ncc(-c3cccc(N[C@H]4CNC[C@@H]4F)n3)n2nc1C1CC1 [Compound 96, 6-(6-cyclopropyl-7-methoxyimidazo[1,2-b]pyridazin-3-yl)-N-((3S,4S)-4-fluoropyrrolidin-3-yl)pyridin-2-amine]
2 | 0.55 nM | 0.8 nM | COc1cc2ncc(-c3cccc(N[C@@H]4CCNC4)n3)n2nc1C1CC1 [Compound 97, (R)-6-(6-cyclopropyl-7-methoxyimidazo[1,2-b]pyridazin-3-yl)-N-(pyrrolidin-3-yl)pyridin-2-amine]
3 | 0.36 nM | 0.61 nM | COc1cc2ncc(-c3cccc(N[C@H]4CNCC[C@@H]4F)n3)n2nc1C1CC1 [Compound 102, 6-(6-cyclopropyl-7-methoxyimidazo[1,2-b]pyridazin-3-yl)-N-((3S,4S)-4-fluoropiperidin-3-yl)pyridin-2-amine]
